{"source": "paper PMC12371491", "about": "(ACS Bio & Med Chem Au, 2025)", "target": "T1, dihydrofolate synthetase (DHFS) (Escherichia coli, UniProt P08192)", "T1 sequence (P08192 1-422)": "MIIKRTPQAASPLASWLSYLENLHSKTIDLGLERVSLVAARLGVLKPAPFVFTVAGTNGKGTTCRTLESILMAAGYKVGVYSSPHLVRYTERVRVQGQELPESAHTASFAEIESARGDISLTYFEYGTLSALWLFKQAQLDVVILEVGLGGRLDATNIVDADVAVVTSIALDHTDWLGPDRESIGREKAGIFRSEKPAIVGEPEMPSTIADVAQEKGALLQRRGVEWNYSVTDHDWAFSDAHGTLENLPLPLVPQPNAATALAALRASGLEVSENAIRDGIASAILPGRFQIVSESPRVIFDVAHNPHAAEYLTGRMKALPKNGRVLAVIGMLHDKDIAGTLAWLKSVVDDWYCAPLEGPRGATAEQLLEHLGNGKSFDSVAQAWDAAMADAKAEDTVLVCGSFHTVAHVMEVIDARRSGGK", "assay": "PK/LDH-coupled steady-state kinetics and LC-MS of product", "format": "biochemical", "data": [{"compound": "Nc1nc2c(c(=O)[nH]1)NC(CNc1ccc(C(=O)N[C@@H](CCC(=O)O)C(=O)O)cc1)CN2", "note": "(stereo partly shown) [THF]", "values": [{"measurement": "PK/LDH-coupled steady-state kinetics and LC-MS of product", "result": "we used fully reduced THF as the substrate and assay for poly glutamylation"}]}]}
